Key:
Kasumi-1 cells = assay: Kasumi-1 cellular viability assay (ATP-Lite, 72 h); assay type: cell-based; settings: Homo sapiens, ATP-Lite luminescence, % viability relative to DMSO
In short: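 Viability was read by ATP-Lite One Step luminescence after 72 h compound treatment at 37 °C/5% CO2, normalised to DMSO control, with IC50 fitted from concentration-response. Cells were Kasumi-1 (AML FAB M2) at 15000 per well in RPMI-1640/10% FBS, 0.1% DMSO final.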

Caov-3 cells = assay: Caov-3 cellular viability assay (ATP-Lite, 72 h); assay type: cell-based; settings: Homo sapiens, ATP-Lite luminescence, % viability relative to DMSO
In short: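 IC50 values come from concentration-response fits of luminescent ATP content (ATP-Lite One Step), normalised as % viability versus DMSO. Compound exposure was 72 h at 37 °C in RPMI-1640/10% FBS with 0.1% final DMSO. Wells held 10000 cells each.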

[1] = biological target: T1, recombinant METTL3/METTL14 complex (Homo sapiens, UniProt Q86U44); assay: METTL3/14 Scintillation Proximity Assay (SPA), RNA methyltransferase activity; assay type: biochemical; settings: 5.31 nM METTL3/14 complex, 250 nM RNA substrate, 1 μM 3H-SAM, 90 min; for compounds marked * best of the two separated forms
T1 construct: purchased Active Motif 311970; host or cells: Sf9 cells
T1 sequence (Q86U44 whole entry): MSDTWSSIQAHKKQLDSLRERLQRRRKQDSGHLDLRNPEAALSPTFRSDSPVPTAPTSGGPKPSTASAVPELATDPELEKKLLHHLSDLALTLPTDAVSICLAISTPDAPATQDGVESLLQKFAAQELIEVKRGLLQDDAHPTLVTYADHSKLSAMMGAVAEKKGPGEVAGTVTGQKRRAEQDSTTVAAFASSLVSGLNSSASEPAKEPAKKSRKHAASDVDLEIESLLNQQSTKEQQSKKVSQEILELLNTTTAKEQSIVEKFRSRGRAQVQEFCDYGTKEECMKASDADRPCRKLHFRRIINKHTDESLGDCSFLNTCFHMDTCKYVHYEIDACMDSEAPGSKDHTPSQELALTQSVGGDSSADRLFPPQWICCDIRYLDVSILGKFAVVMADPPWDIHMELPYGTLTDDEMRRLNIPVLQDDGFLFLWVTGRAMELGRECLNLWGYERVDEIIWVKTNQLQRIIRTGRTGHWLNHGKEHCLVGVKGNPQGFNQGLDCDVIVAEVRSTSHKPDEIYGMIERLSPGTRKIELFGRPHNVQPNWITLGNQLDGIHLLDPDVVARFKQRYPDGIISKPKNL
T1 sequence (Q9HCE5 whole entry partner): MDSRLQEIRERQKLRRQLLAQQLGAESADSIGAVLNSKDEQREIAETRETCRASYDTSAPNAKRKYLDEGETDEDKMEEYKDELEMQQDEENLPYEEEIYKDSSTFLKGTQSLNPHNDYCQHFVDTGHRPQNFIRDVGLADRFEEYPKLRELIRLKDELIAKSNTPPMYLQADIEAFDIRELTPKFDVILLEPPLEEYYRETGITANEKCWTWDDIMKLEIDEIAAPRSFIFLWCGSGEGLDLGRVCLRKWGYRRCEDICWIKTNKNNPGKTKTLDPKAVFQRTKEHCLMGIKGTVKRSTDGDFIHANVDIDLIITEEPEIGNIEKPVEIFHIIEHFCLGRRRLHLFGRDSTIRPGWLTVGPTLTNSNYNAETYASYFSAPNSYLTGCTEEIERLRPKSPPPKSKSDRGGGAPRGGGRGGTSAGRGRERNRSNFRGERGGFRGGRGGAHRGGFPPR

| SMILES | IC50 (Kasumi-1 cells) [µM] | IC50 (Caov-3 cells) [µM] | IC50 [1] [µM] |
| --- | --- | --- | --- |
| FC(F)(F)C1(CN[C@@H]2CCCN(c3ccc(C4(n5cc(-c6cncc(C7CC7)c6)nn5)COC4)nc3)C2)CCC1 [Compound 339, (R)-1-(6-(3-(4-(5-cyclopropylpyridin-3-yl)-1H-1,2,3-triazol-1-yl)oxetan-3-yl)pyridin-3-yl)-N-((1-(trifluoromethyl)cyclobutyl)methyl)piperidin-3-amine] | 0.5 to 5 | ≤ 0.5 | ≤ 0.05 |
| FC1(F)CC(CN[C@@H]2CCCN(c3ccc(C4(n5cc(-c6cncc(C7CC7)c6)nn5)COC4)nc3)C2)C1 [Compound 341, (R)-1-(6-(3-(4-(5-cyclopropylpyridin-3-yl)-1H-1,2,3-triazol-1-yl)oxetan-3-yl)pyridin-3-yl)-N-((3,3-difluorocyclobutyl)methyl)piperidin-3-amine] | ≤ 0.5 | ≤ 0.5 | ≤ 0.05 |
| c1nnc(-c2cn(C3(c4ccc(N5CCC[C@@H](NCC6CC6)C5)cn4)COC3)nn2)cc1C1CC1 [Compound 343, (R)-N-(cyclopropylmethyl)-1-(6-(3-(4-(5-cyclopropylpyridazin-3-yl)-1H-1,2,3-triazol-1-yl)oxetan-3-yl)pyridin-3-yl)piperdin-3-amine] | 0.5 to 5 | ≤ 0.5 | ≤ 0.05 |
| c1ncc(C2CC2)cc1-c1nnc(C2(c3ccc(N4CCC[C@@H](NCC5CC5)C4)cn3)COC2)o1 [Compound 344, (R)-N-(cyclopropylmethyl)-1-(6-(3-(5-(5-cyclopropylpyridin-3-yl)-1,3,4-oxadiazol-2-yl)oxetan-3-yl)pyridin-3-yl)piperidin-3-amine] | 0.5 to 5 | > 5 | 0.05 to 0.5 |
| CC#Cc1cncc(-c2cn(C3(c4ccc(N5CCC[C@@H](NCC6CC6)C5)cn4)COC3)nn2)c1 [Compound 345, (R)-N-(cyclopropylmethyl)-1-(6-(3-(4-(5-(prop-1-vn-1-yl)pyridin-3-yl)-1H-1,2,3-triazol-1-yl)oxetan-3-yl)pyridin-3-yl)piperidin-3-amine] | ≤ 0.5 | ≤ 0.5 | ≤ 0.05 |
| c1ncc(-c2cn(C3(c4ccc(N5CCC[C@@H](NCC6CC6)C5)cn4)COC3)nn2)cc1CC1CC1 [Compound 346, (R)-N-(cyclopropylmethyl)-1-(6-(3-(4-(5-(cyclopropylmethyl)pyridin-3-yl)-1H-1,2,3-triazol-1-yl)oxetan-3-yl)pyridin-3-yl)piperdin-3-amine] | ≤ 0.5 | ≤ 0.5 | ≤ 0.05 |
| c1ncc(C2CC2)cc1-c1cn(C2(c3ccc(N4CCC[C@@H](NCC5CC5)C4)cn3)CNC2)nn1 [Compound 349, (R)-N-(cyclopropylmethyl)-1-(6-(3-(4-(5-cyclopropylpyridin-3-yl)-1H-1,2,3-triazol-1-yl)azetidin-3-yl)pyridin-3-yl)piperidin-3-amine] | > 5 | 0.5 to 5 | ≤ 0.05 |
| CN1CC(c2ccc(N3CCC[C@@H](NCC4CC4)C3)cn2)(n2cc(-c3cncc(C4CC4)c3)nn2)C1 [Compound 350, (R)-N-(cyclopropylmethyl)-1-(6-(3-(4-(5-cyclopropylpyridin-3-yl)-1H-1,2,3-triazol-1-yl)-1-methylazetidin-3-yl)pyridin-3-yl)piperidin-3-amine] | 0.5 to 5 | 0.5 to 5 | ≤ 0.05 |
| c1ncc(C2CC2)cc1-c1nnc(C2(c3ccc(N4CCC[C@@H](NCC5CC5)C4)cn3)COC2)s1 [Compound 352, (R)-N-(cyclopropylmethyl)-1-(6-(3-(5-(5-cyclopropylpyridin-3-yl)-1,3,4-thiadiazol-2-yl)oxetan-3-yl)pyridin-3-yl)piperidin-3-amine] | ≤ 0.5 | ≤ 0.5 | ≤ 0.05 |
| CC(c1ccc(N2CCC[C@@H](NCC3CC3)C2)nn1)c1nnc(-c2cncc(C3CC3)c2)s1 (stereo partly drawn) [Compound 358, (3R)—N-(cyclopropylmethyl)-1-(6-(1-(5-(5-cyclopropylpyridin-3-yl)-1,3,4-thiadiazol-2-yl)ethyl)pyridazin-3-yl)piperidin-3-amine] | 0.5 to 5 | ≤ 0.5 | ≤ 0.05 |
| CC(c1ccc(N2CCC[C@@H](NCC3CC3)C2)cn1)c1nnc(-c2cncc(C3CC3)c2)s1 (stereo partly drawn) [Compound 359, (3R)—N-(cyclopropylmethyl)-1-(6-(1-(5-(5-cyclopropylpyridin-3-yl)-1,3,4-thiadiazol-2-yl)ethyl)pyridin-3-yl)piperidin-3-amine] | ≤ 0.5 | ≤ 0.5 | ≤ 0.05 |
| c1cc(Cc2nnc(-c3cncc(N4CCCC4)n3)s2)ncc1N1CCC[C@@H](NCC2CC2)C1 [Compound 361, (R)-N-(cyclopropylmethyl)-1-(6-((5-(6-(pyrrolidin-1-yl)pyrazin-2-yl)-1,3,4-thiadiazol-2-yl)methyl)pyridin-3-yl)piperidin-3-amine] | ≤ 0.5 | ≤ 0.5 | ≤ 0.05 |
| c1ncc(C2CC2)cc1-c1nnc(Cc2ccc(N3CCC[C@@H](NCC4CC4)C3)cn2)s1 [Compound 362, (R)-N-(cyclopropylmethyl)-1-(6-((5-(5-cyclopropylpyridin-3-yl)-1,3,4-thiadiazol-2-yl)methyl)pyridin-3-yl)piperidin-3-amine] | ≤ 0.5 | ≤ 0.5 | ≤ 0.05 |
| CC(C)(c1ccc(N2CCC[C@@H](NCC3CC3)C2)cn1)c1nnc(-c2cncc(C3CC3)c2)s1 [Compound 363, (R)-N-(cyclopropylmethyl)-1-(6-(2-(5-(5-cyclopropylpyridin-3-yl)-1,3,4-thiadiazol-2-yl)propan-2-yl)pyridin-3-yl)piperidin-3-amine] | 0.5 to 5 | 0.5 to 5 | ≤ 0.05 |
| CC(C)(c1ccc(N2CCC[C@@H](NCC3CC3)C2)cn1)c1nnc(-c2cncc(N3CCCC3)n2)s1 [Compound 364, (R)-N-(cyclopropylmethyl)-1-(6-(2-(5-(6-(pyrrolidin-1-yl)pyrazin-2-yl)-1,3,4-thiadiazol-2-yl)propan-2-yl)pyridin-3-yl)piperidin-3-amine] | ≤ 0.5 | ≤ 0.5 | ≤ 0.05 |
| CC1(CN[C@@H]2CCCN(c3ccc(C4(c5nnc(-c6cncc(N7CCCC7)n6)s5)COC4)nc3)C2)CC1 [Compound 367, (R)-N-((1-methylcyclopropyl)methyl)-1-(6-(3-(5-(6-(pyrrolidin-1-yl)pyrazin-2-yl)-1,3,4-thiadiazol-2-yl)oxetan-3-yl)pyridin-3-yl)piperdin-3-amine] | ≤ 0.5 | ≤ 0.5 | ≤ 0.05 |
| CC1(CN[C@@H]2CCCN(c3ccc(C4(c5nnc(-c6cncc(C7CC7)c6)s5)COC4)nc3)C2)CC1 [Compound 368, (R)-1-(6-(3-(5-(5-cyclopropylpyridin-3-yl)-1,3,4-thiadiazol-2-yl)oxetan-3-yl)pyridin-3-yl)-N-((1-methylcyclopropyl)methyl)piperidin-3-amine] | ≤ 0.5 | ≤ 0.5 | ≤ 0.05 |
| c1cc(C2(c3nnc(-c4cncc(N5CCCC5)n4)s3)COC2)ncc1N1CCC[C@@H](NCC2CC2)C1 [Compound 369, (R)-N-(cyclopropylmethyl)-1-(6-(3-(5-(6-(pyrrolidin-1-yl)pyrazin-2-yl)-1,3,4-thiadiazol-2-yl)oxetan-3-yl)pyridin-3-yl)piperidin-3-amine] | ≤ 0.5 | ≤ 0.5 | ≤ 0.05 |

Reference: patent US20250002475A1 (EPICS THERAPEUTICS, priority 2023, published 2025)
